Experimental data reported in patent US6787670B1, “Glyoxyl acid amides, method for producing them and their use for controlling harmful organisms” (priority 1999, dated 2004).

system: Phytophthora infestans; experiment: whole plant or invertebrate; format: in vivo; settings: Phytophthora infestans, in Solanum lycopersicum, 72 h, read-out: efficacy in %, tomato plants, protective spray, application rate 50 g/ha, evaluation 3 days after inoculation; 100% = no infection

SMILES | pest or weed control at 50 g/ha [%]
C=CCOc1ccc(CCNC(=O)/C(=N\OC)c2ccc3c(c2)CCCC3)cc1OC [Example 57] | 99
CCC(=O)COc1ccc(CCNC(=O)/C(=N\OC)c2ccc3c(c2)CCCC3)cc1OC [Example 60] | 89
CCc1ccc(/C(=N/OC)C(=O)NCCc2ccc(OC(C)C)c(OC)c2)cc1 [Example 60] | ≥ 89
CCCOc1ccc(CCNC(=O)/C(=N\OC)c2ccc(Br)cc2)cc1OC [Example 61] | 94
CO/N=C(\C(=O)NCCc1ccc(OC(C)C)c(OC)c1)c1ccc2c(c1)CCCC2 [Example 61] | ≥ 89
CCC(C)Oc1ccc(CCNC(=O)/C(=N\OC)c2ccc(Cl)cc2)cc1OC (stereo not shown) [Example 62] | 89
CCC(C)Oc1ccc(CCNC(=O)/C(=N\OC)c2ccc3c(c2)CCC3)cc1OC (stereo not shown) [Example 65] | 94
CO/N=C(\C(=O)NCCc1ccc(OC(C)C)c(OC)c1)c1ccc(C)cc1 [Example 107] | 95
COCCOc1ccc(CCNC(=O)/C(=N/OC)c2ccc3c(c2)CCCC3)cc1OC [Example 107] | ≥ 89
C=CCOc1ccc(CCNC(=O)/C(=N\OC)c2ccc(Br)cc2)cc1OC [Example 115] | ≥ 89
CO/N=C(\C(=O)NCCc1ccc(OC(C)C)c(OC)c1)c1ccc2c(c1)CCC2 [Example 115] | 94

same assay, conditions: tomato plants, protective spray, application rate 50 g/ha, evaluation 3 days after inoculation; 100% = no infection

SMILES | efficacy in % [%]
COCCOc1ccc(CCNC(=O)/C(=N/OC)c2ccc3c(c2)CCCC3)cc1OC [Example 3] | 92
C=CCOc1ccc(CCNC(=O)/C(=N\OC)c2ccc(Br)cc2)cc1OC [Example 52] | 100
CCc1ccc(/C(=N/OC)C(=O)NCCc2ccc(OC(C)C)c(OC)c2)cc1 [Example 113] | 94

same assay, conditions: tomato plants, protective spray, application rate 50 g/ha, evaluation 3 days after inoculation; 100% = no infection; listed as drawing 53

SMILES | efficacy in % [%]
CO/N=C(\C(=O)NCCc1ccc(OC(C)C)c(OC)c1)c1ccc2c(c1)CCCC2 [Example 63] | 94

same assay, conditions: tomato plants, protective spray, application rate 50 g/ha, evaluation 3 days after inoculation; 100% = no infection; listed as drawing 58

SMILES | efficacy in % [%]
CO/N=C(\C(=O)NCCc1ccc(OC(C)C)c(OC)c1)c1ccc2c(c1)CCCC2 [Example 116] | 94

system: Plasmopara viticola; experiment: Plasmopara test (grapevine)/protective; format: in vivo; settings: 144 h, grapevine plants, protective spray, application rate 50 g/ha, evaluation 6 days after inoculation, 100% = no infection, read-out: efficacy in %

SMILES | pest or weed control at 50 g/ha [%]
COCCOc1ccc(CCNC(=O)/C(=N\OC)c2ccc(Cl)cc2)cc1OC [Example 60] | 96
CCC(=O)COc1ccc(CCNC(=O)/C(=N\OC)c2ccc3c(c2)CCCC3)cc1OC [Example 100] | 94
CCC(C)Oc1ccc(CCNC(=O)/C(=N\OC)c2ccc(Cl)cc2)cc1OC (stereo not shown) [Example 111] | 83
CCC(C)Oc1ccc(CCNC(=O)/C(=N\OC)c2ccc3c(c2)CCC3)cc1OC (stereo not shown) [Example 113] | 94
CO/N=C(\C(=O)NCCc1ccc(OC(C)C)c(OC)c1)c1ccc2c(c1)CCC2 [Example 116] | 100

same assay, conditions: 144 h, read-out: efficacy in %

SMILES | pest or weed control at 50 g/ha [%]
CCOc1cc(CCNC(=O)/C(=N\OC)c2ccc3c(c2)CCCC3)ccc1OC [Example 52] | 93
C=CCOc1ccc(CCNC(=O)/C(=N\OC)c2ccc(Br)cc2)cc1OC [Example 63] | 99
COCCOc1ccc(CCNC(=O)/C(=N\OC)c2ccc3c(c2)CCCC3)cc1OC [Example 65] | 93
CCc1ccc(/C(=N/OC)C(=O)NCCc2ccc(OC(C)C)c(OC)c2)cc1 [Example 115] | 87

same assay, conditions: 144 h, read-out: efficacy in %, grapevine plants, protective spray, application rate 50 g/ha, evaluation 6 days after inoculation, 100% = no infection

SMILES | pest or weed control at 50 g/ha [%]
CCc1ccc(/C(=N/OC)C(=O)NCCc2ccc(OC(C)C)c(OC)c2)cc1 [Example 60] | ≥ 83
CCOc1cc(CCNC(=O)/C(=N\OC)c2ccc3c(c2)CCCC3)ccc1OC [Example 100] | ≥ 83
C=CCOc1ccc(CCNC(=O)/C(=N\OC)c2ccc(Br)cc2)cc1OC [Example 115] | ≥ 83

system: Alternaria solani; experiment: Alternaria test (tomato)/protective; format: in vivo; settings: tomato plants, protective spray, application rate 750 g/ha, evaluation 3 days after inoculation; 100% = no infection
Description: Alternaria Test (Tomato)/Protective
Solvent: 50 parts by weight of N,N-dimethylformamide
Emulsifier: 1.2 parts by weight of alkylaryl polyglycol ether
One day after the treatment, the plants are inoculated with a spore suspension of Alternaria solani. The plants then stand at 100% rel. atmospheric humidity and a temperature of 20° C.
Evaluation is carried out 3 days after the inoculation.

SMILES | efficacy in % [%]
CO/N=C(\C(=O)NCCc1ccc(OCC(C)C)c(OC)c1)c1ccc2c(c1)CCCC2 [Example 45] | 95
CCCCOc1ccc(CCNC(=O)/C(=N\OC)c2ccc3c(c2)CCCC3)cc1OC [Example 48] | 95
CO/N=C(\C(=O)NCCc1ccc(OCC(C)C)c(OC)c1)c1ccc2c(c1)CCCC2 [Example 49] | 90
